Where two headings read alike, the source gives them in different places. Values belong to the compound of their own block, whether it stands above or below them.
Key:
[1] = test system: nociceptive thresholds; format: in vivo, rat; conditions: for Antinociception of inhibitor alone: large icv doses (250-500 nmol), 7 – 11 min after administration, TF and HP; for Antagonism of azole-induced antinociception by naltrexone: naltrexone 5 mg/kg i.p. pre-treatment, TF 11 min post-icv azole; for Antinociceptive effects of inhibitor alone: icv 50, 250, 500 nmol (fluconazole 250 and 500 nmol), TF or HP
[2] = target: human δ opioid receptor (Homo sapiens, UniProt P41143); test: Opioid receptor binding, [3H]naltrindole, CHO cell membranes
[3] = target: human μ opioid receptor (Homo sapiens, UniProt P35372); test: Opioid receptor binding, [3H]DAMGO, CHO cell membranes
[4] = target: human κ opioid receptor (Homo sapiens, UniProt P41145); test: Opioid receptor binding, [3H]U69,593, CHO cell membranes
[5] = test system: improgan antinociception; format: in vivo, mouse; conditions: for Decrease of average improgan antinociception in Cpr^low vs control mice: improgan 145 nmol icv
[6] = target: T1, cDNA-expressed human CYP2C19 (Homo sapiens, UniProt P33261); test: biochemical
[7] = target: human H3 receptor (Homo sapiens, UniProt Q9Y5N1); format: binding
[8] = test system: improgan antinociception; format: in vivo; conditions: improgan 250 nmol icv, TF
[9] = target: T1, cDNA-expressed human CYP2C19; conditions: read-out: Ki CYP2C19; cited from earlier work
[10] = test system: brain form of heme oxygenase; conditions: ref Suppl. Table 1; cited from earlier work

human κ opioid receptor, sequence (P41145 whole entry): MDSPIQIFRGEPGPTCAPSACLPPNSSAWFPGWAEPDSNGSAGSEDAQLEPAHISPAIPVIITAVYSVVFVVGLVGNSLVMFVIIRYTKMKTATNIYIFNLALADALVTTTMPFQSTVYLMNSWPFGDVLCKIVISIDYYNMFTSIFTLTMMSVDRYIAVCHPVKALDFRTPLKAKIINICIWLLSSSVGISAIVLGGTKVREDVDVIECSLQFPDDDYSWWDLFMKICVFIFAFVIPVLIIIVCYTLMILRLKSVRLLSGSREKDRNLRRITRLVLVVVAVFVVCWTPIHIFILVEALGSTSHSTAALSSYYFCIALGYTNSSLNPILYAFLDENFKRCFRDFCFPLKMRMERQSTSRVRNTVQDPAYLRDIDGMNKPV
human μ opioid receptor, sequence (P35372 whole entry): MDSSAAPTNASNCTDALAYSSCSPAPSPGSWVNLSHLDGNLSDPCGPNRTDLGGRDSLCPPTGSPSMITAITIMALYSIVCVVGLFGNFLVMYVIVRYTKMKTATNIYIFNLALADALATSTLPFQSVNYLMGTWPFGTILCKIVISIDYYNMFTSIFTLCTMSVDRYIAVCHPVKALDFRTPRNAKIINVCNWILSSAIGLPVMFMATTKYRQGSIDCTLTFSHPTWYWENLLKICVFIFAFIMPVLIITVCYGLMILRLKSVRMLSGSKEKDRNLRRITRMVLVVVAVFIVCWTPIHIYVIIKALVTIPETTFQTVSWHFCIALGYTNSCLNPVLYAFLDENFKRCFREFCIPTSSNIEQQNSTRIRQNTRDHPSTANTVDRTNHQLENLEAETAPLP
human δ opioid receptor, sequence (P41143 whole entry): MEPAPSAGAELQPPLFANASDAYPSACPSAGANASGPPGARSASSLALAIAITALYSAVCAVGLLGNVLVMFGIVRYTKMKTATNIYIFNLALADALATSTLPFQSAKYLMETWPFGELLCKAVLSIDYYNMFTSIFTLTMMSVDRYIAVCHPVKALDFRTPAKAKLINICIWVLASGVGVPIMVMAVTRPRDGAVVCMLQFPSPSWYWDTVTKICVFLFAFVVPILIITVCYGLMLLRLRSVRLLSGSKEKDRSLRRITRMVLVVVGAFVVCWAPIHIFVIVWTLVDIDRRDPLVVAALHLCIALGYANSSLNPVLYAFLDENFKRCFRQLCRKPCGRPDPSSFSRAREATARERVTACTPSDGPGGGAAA
T1 sequence (P33261 whole entry): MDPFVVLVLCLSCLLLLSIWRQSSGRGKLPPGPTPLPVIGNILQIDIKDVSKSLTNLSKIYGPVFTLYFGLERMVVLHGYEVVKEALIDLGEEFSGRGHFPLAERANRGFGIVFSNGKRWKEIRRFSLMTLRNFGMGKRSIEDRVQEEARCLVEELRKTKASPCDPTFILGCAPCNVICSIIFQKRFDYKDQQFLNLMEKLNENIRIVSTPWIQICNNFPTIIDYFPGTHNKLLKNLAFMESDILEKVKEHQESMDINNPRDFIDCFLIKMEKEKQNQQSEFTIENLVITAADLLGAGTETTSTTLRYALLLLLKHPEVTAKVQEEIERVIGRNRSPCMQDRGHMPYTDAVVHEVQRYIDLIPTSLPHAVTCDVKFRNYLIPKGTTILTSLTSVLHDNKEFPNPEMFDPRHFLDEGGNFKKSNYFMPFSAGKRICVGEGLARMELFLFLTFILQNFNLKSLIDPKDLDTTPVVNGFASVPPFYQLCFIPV
human H3 receptor, sequence (Q9Y5N1 whole entry): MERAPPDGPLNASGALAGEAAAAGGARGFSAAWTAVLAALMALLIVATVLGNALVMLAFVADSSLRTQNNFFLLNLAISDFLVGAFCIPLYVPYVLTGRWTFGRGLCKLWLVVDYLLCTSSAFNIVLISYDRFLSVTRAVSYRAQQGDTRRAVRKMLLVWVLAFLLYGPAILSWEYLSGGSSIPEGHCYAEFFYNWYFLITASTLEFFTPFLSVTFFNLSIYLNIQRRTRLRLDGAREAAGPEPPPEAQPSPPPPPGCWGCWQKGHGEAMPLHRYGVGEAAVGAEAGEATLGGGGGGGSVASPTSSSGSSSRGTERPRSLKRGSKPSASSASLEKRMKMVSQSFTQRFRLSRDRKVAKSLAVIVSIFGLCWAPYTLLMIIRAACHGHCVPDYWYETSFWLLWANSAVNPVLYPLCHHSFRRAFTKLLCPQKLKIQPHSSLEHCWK

Structure (SMILES): CC(=O)N1CCN(c2ccc(OCC3COC(Cn4ccnc4)(c4ccc(Cl)cc4Cl)O3)cc2)CC1 (stereo not drawn) [Ketoconazole, ketoconazole]
Antinociception of inhibitor alone [1]: notable antinociception
Antagonism of azole-induced antinociception by naltrexone [1]: but not that produced by ketoconazole
Ki [2]: > 10000 nM
Ki [3]: > 10000 nM
Ki [4]: > 10000 nM

Structure (SMILES): CN/C(=N\C#N)NCCCc1c[nH]cn1 [Improgan]
Antinociception in wild-type mice ([5]; 145 nmol icv, 10 - 30 min after administration, tail immersion): significant, near-maximal antinociception
Decrease of average improgan antinociception in Cpr^low vs control mice ([5]; no CC12, 10 min): 59%
Decrease of average improgan antinociception in Cpr^low vs control mice ([5]; no CC12, 20 min): 37%
Decrease of average improgan antinociception in Cpr^low vs control mice ([5]; no CC12, 30 min): 41%

Structure (SMILES): Clc1ccccc1C(c1ccccc1)(c1ccccc1)n1ccnc1 [Clotrimazole, clotrimazole]
Antinociceptive effects of inhibitor alone [1]: no significant antinociceptive effects
Ki [6]: 316 nM
Ki [2]: 770 ± 25 nM
Ki [4]: 260 ± 8.7 nM

Ki [7]: 4470 nM
Ki [2]: 590 ± 29 nM
Ki [3]: 1400 nM
Ki [4]: 760 ± 120 nM
Structure (SMILES): Clc1ccc(COC(Cn2ccnc2)c2ccc(Cl)cc2Cl)c(Cl)c1 (stereo not drawn) [Miconazole, miconazole]
Antinociception of inhibitor alone [1]: notable antinociception
Antagonism of azole-induced antinociception by naltrexone [1]: did not achieve robust statistical significance
Antagonism of improgan antinociception ([8]; inhibitor 10 nmol icv): nearly-complete antagonism

Structure (SMILES): Clc1ccc(CSC(Cn2ccnc2)c2ccc(Cl)cc2Cl)cc1 (stereo not drawn) [Sulconazole, sulconazole]
Antagonism of azole-induced antinociception by naltrexone [1]: completely blocked

Ki [7]: 22200 nM
Ki [2]: > 10000 nM
Ki [3]: > 10000 nM
Ki [4]: > 10000 nM
Structure (SMILES): C#CCOc1ccccc1CCCCCC(=O)NS(C)(=O)=O [MS-PPOH, N-methylsulfonyl-6-(2-propargyloxyphenyl)hexanamide]
Ki [9]: > 10000 nM
Attenuation of improgan antinociception ([8]; inhibitor 30 nmol icv): virtually complete attenuation

Structure (SMILES): OC(Cn1cncn1)(Cn1cncn1)c1ccc(F)cc1F [Fluconazole, fluconazole]
Antinociceptive effects of inhibitor alone [1]: no significant antinociceptive effects
Inhibition of the brain form of heme oxygenase [10]: do not inhibit
Antagonism of improgan antinociception ([8]; inhibitor 100 nmol icv): nearly-complete antagonism

Reference: article PMC3065546 (Pain, 2011)
